From patent US5098706A, “Juvenile hormone esterase for insect control” (The Regents of the University of California, priority 1988, dated 1992)

Legend:
[1] = system: tomato hornworm larvae; assay: Prevention of cuticular blackening in tomato hornworm larvae injected with juvenile hormone esterase; format: in vivo, Manduca sexta; conditions: third stadium larvae injected with 9 μg (148 pmoles) juvenile hormone esterase, then 0.17 nmoles epofenonane
Experimental: Tomato hornworm larvae, obtained from Zoecon Corp., were injected with the affinity purified juvenile hormone esterase obtained from Example I. Injections were performed at 10 hours after lights on the day before ecdysis to the third stadium. Larvae were reared on a 14L"10D photoperiod. Injections were made in 1.5 μl of buffer cocktail containing 3-10 μg (49-164 pmoles) of esterase. Total protein in each injection was kept constant at 10 μg with […] bovine serum albumen (BSA). Control injections in buffer contained 10 μg BSA or 12 μg larval blood protein from which the esterase was removed.
FIG. 2 illustrates third stadium tomato hornworm larvae after injection with 9 μg (148 pmoles) of juvenile hormone esterase as in FIG. 1, but then treated with 17 nmoles epofenonane (left), 0.17 nmoles epofenonane (middle) or no epofenonane (right). […] Epofenonane is a juvenile hormone chemical mimic, although it is not a substrate for juvenile hormone esterase. Thus, FIG. 2 illustrates that even a dose of juvenile hormone which is too low completely to prevent an anti-juvenile hormone effect can still effect a localized response.

[2] = target: T1, juvenile hormone hemolymph carrier protein (H. virescens) (Heliothis virescens, UniProt Q25175); assay: Binding of juvenile hormone by the hemolymph carrier protein; conditions: juvenile hormone bound by carrier protein
T1 construct: preparation not described in the excerpts
T1 sequence (Q25175 19-242): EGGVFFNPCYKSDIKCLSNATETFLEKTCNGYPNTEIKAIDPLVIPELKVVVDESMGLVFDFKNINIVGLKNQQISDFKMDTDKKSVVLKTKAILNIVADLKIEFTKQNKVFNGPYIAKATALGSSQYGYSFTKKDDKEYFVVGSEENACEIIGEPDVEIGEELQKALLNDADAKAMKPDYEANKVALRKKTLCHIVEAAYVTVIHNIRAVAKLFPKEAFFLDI
Excerpt: (§1) Juvenile hormone esterase is biochemically interesting in that it is an extraordinarily efficient enzyme. The very low Km ^31 6×10^-8 M of juvenile hormone esterase, its high kcat, and the low molarity of the enzyme even in the last larval stadium indicate that production of even small amounts of juvenile hormone esterase (<0.1% of total protein) should overpower the ability of the corpora allata to make juvenile hormone. This destruction of the juvenile hormone will be […] by the juvenile hormone hemolymph carrier protein.

[3] = target: T2, juvenile hormone esterase (Heliothis virescens, UniProt P12992); assay: Juvenile hormone esterase kinetics for juvenile hormone; format: biochemical; conditions: substrate juvenile hormone
T2 sequence (P12992 20-564): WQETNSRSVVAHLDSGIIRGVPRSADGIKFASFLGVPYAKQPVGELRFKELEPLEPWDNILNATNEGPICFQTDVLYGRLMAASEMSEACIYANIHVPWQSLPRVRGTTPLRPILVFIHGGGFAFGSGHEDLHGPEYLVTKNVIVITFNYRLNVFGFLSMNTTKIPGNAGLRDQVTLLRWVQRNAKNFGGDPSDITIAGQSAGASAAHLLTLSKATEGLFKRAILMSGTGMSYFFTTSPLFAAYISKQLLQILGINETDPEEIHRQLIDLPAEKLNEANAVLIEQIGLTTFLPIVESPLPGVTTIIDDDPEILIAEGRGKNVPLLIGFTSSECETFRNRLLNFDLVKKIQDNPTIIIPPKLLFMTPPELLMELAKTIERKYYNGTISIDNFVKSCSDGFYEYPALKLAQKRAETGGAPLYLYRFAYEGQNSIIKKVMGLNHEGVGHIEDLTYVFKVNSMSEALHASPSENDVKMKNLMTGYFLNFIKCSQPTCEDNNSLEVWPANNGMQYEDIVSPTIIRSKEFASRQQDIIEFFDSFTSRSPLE
Excerpt: as §1

Compound: CCc1ccc(OCCC(CC)CCC2OC2(C)CC)cc1 (stereo not drawn) [epofenonane]
- prevention of blackening of the cuticle [1]: not sufficient to prevent completely the blackening of the cuticle

Compound: juvenile hormone
- Kd [2]: 610 nM
- Km [3]: 0.06 µM
